The values that follow come from patent US20250360179A1, “PEPTIDE-IONIC LIQUID CONJUGATE FOR THE PREVENTION AND/OR TREATMENT OF SKIN DISORDERS” (UNIVERSIDADE DO PORTO, priority 2022, published 2025).

Type in all cases: cell-based
The test system of test [1] is Candida albicans (ATCC 90028). As to the kind of experiment: Antifungal MIC (EUCAST) against C. albicans. The note with it: C. albicans ATCC 90028, n = 2.
In test [2] the test system is Candida glabrata (ATCC 90030). The test can be described thus: Antifungal MIC (EUCAST) against C. glabrata. The conditions noted are these: C. glabrata ATCC 90030, n = 2.
The subject of test [3] is Candida parapsilosis (ATCC 22019). As to the kind of experiment: Antifungal MIC (EUCAST) against C. parapsilosis. The note with it: C. parapsilosis ATCC 22019, n = 2.
Test [4] relates to E. coli ATCC 25922. The test can be described thus: MIC (CLSI) against E. coli ATCC 25922. The conditions noted are these: E. coli ATCC 25922, n = 3.
The subject of test [5] is P. aeruginosa ATCC 27853. As to the kind of experiment: MIC (CLSI) against P. aeruginosa ATCC 27853. The note with it: P. aeruginosa ATCC 27853, n = 3.
In test [6] the test system is S. aureus ATCC 29213. As to the kind of experiment: MIC (CLSI) against S. aureus ATCC 29213. The note with it: S. aureus ATCC 29213, n = 3.
Test [7] deals with E. faecalis ATCC 29212. As to the kind of experiment: MIC (CLSI) against E. faecalis ATCC 29212. The conditions noted are these: E. faecalis ATCC 29212, n = 3.
Test [8] concerns K. pneumonia ATCC 138830. As to the kind of experiment: MIC (CLSI) against K. pneumoniae ATCC reference strain. The conditions noted are these: K. pneumonia ATCC 138830, n = 3.
In test [9] the test system is S. epidermidis ATCC 14990. The test can be described thus: MIC (CLSI) against S. epidermidis ATCC 14990. The conditions noted are these: S. epidermidis ATCC 14990, n = 3.
Test [10] concerns S. pyogenes ATCC 19615. As to the kind of experiment: MIC (CLSI) against S. pyogenes ATCC 19615. The note with it: S. pyogenes ATCC 19615, n = 3.
In test [11] the test system is K. pneumoniae (KP010) MDR clinical isolate. The conditions noted are these: MDR isolate KP010, n = 3.
The test system of test [12] is P. aeruginosa (PA004) MDR clinical isolate. The conditions noted are these: MDR isolate PA004, n = 3.
Test [13] has as its system S. aureus (SA007) MDR clinical isolate. The note with it: for MIC: MDR isolate SA007, n = 3.
For test [14], the system named is S. aureus (ATCC 29213). As to the kind of experiment: MIC and MBC in MHB and simulated wound fluid (SWF). The note with it: for MBC: S. aureus ATCC 29213 in MHB, n = 3; for antibacterial activity in simulated wound fluid (SWF): S. aureus, SWF compared with MHB. As for the experimental part:
The antibacterial activity of C16Im-KTTKS and KTTK(C16Im)S was also assessed in SWF (50) against S. aureus (ATCC 29213), to check if it was preserved in this medium.

The subject of test [15] is human dermal fibroblasts (HDF). The test can be described thus: Collagen production in vitro (Sircol kit). The conditions noted are these: 5 μM, versus negative control. How it is done: FIG. 3—Collagen synthesis by Human Dermal Fibroblasts (HDF), in presence of C16-KTTKS-OH (Matrixyl®), KTTK (C16Im)S and C16Im-KTTKS at 5 μM, using the Sircol™ Kit. Data are presented as mean±SEM (3 independent experiments in triplicates) expressed in collagen amount (% of control); *p<0.05, **p<0.01.
The point of conjugating antimicrobial ILs to a collagenesis-inducing peptide was to afford a simple construct able to exert a dual antimicrobial and skin rebuilding action. Therefore, the two best IL-KTTKS conjugates were further tested for their ability to promote collagen production by human dermal fibroblasts (HDF) in vitro. This was assessed using the Sircol® kit assay, whereby the amount of newly formed collagen in the ECM that is deposited in the microwell-plated cell cultures is solubilized in an acidic medium and next quantified through a collagen standard curve according to the Sircol® kit assay procedure (55). Assays were conducted in different conditions for comparison, namely, in the presence of the reference cosmeceutical Matrixyl® (positive control—C16-KTTKS-OH), of the test conjugates KTTK(C16Im)S and C16Im-KTTKS, and in the absence of any peptide (negative control).

Test [16] relates to Gram-negative and Gram-positive bacteria (ATCC reference strains). The test can be described thus: Antibacterial activity against ATCC reference strains, statements across species. The conditions noted are these: Gram-positive species at MIC values. How it is done:
The antimicrobial activity of the IL-KTTKS conjugates was assessed in vitro against reference bacterial strains (American Type Culture Collection, ATCC). The minimal inhibitory concentration (MIC) was determined according to the Clinical and Laboratory Standards Institute (CLSI) guidelines (43) against Gram-positive (S. aureus, E. faecalis) and Gram-negative (E. coli, P. aeruginosa) bacteria. […] IL are in agreement with those previously reported (44).

Values joined by “and” are separate entries in the source; they are usually repeats but may differ in a detail not shown here. Identical values can stand only once. Like-named read-outs stand apart in the source and are kept apart here. Marks after values point to notes of the source that are not given here. Residues, ends and D or L forms follow the SMILES beside them. *: point of attachment. X1 = CCCCCCCCCCCCCCCCn1cc[n+](Cc2cn(CC(=O)*)nn2)c1; X2 = Cn1cc[n+](Cc2cn(CC(=O)*)nn2)c1

A word on the MIC: it is the lowest concentration found to suppress growth. As for `OC(Cn1cncn1)(Cn1cncn1)c1ccc(F)cc1F` [Fluconazole, reference compound], the MIC came out at 0.5 µg/mL in [1] (Candida albicans, ATCC90028, read-out: MIC); 8 µg/mL in [2] (Nakaseomyces glabratus, ATCC90030, read-out: MIC); 2 µg/mL in test [3] (ATCC22019, read-out: MIC).
In the case of `C[C@@H](O)[C@H](NC(=O)[C@@H](NC(=O)[C@@H](N)CCCCn1cc(C[n+]2ccn(C)c2)nn1)[C@@H](C)O)C(=O)N[C@@H](CCCCn1cc(C[n+]2ccn(C)c2)nn1)C(=O)N[C@@H](CO)C(N)=O` [K(MeIm)TTK(MeIm)S], the MIC in [4] is over 1067.4 µg/mL; in test [5], > 1245.5 μM and > 1067.4 μg/mL; in test [6], > 1245.5 μM and > 1067.4 μg/mL; in [7], > 1245.5 μM and > 1067.4 μg/mL.
In the case of `C[C@@H](O)[C@H](NC(=O)[C@@H](NC(=O)[C@@H](N)CCCCn1cc(C[n+]2ccn(C)c2)nn1)[C@@H](C)O)C(=O)N[C@@H](CCCCN)C(=O)N[C@@H](CO)C(N)=O` [K(MeIm)TTKS], the MIC in test [4] was over 731.2 µg/mL; in [5] it was > 1030.1 μM and > 731.2 μg/mL; in test [6] it was > 1030.1 μM and > 731.2 μg/mL; in [7] it was > 1030.1 μM and > 731.2 μg/mL.
Consider `CCCCCCCCCCCCCCn1cc[n+](Cc2cn(CCCC[C@H](NC(=O)[C@@H](NC(=O)[C@@H](NC(=O)[C@@H](N)CCCCN)[C@@H](C)O)[C@@H](C)O)C(=O)N[C@@H](CO)C(N)=O)nn2)c1` [KTTK(C14Im)S], for which the MIC entry is on record as “(26.3) μg/mL” in test [4], “(52.6)^b μg/mL” in [5], “(26.3) μg/mL” in test [6] and “(52.6)^b μg/mL” in [7].
On to `CCCCCCCCCCCCCCCCn1cc[n+](Cc2cn(CCCC[C@H](NC(=O)[C@@H](NC(=O)[C@@H](NC(=O)[C@@H](N)CCCCN)[C@@H](C)O)[C@@H](C)O)C(=O)N[C@@H](CO)C(N)=O)nn2)c1` [KTTK(C16Im)S], for which the MIC result in test [4] is “(6.45) μg/mL”; in [5] it was “(29.9) μg/mL”; in [6] it was “(12.9) μg/mL”; in [7], “(29.9) μg/mL”; in [8], “(49.5) μg/mL”; in [9], “(5.0) μg/mL”. For the same compound, the MIC entry was “(10.0) μg/mL” in test [10]; 20.0 µg/mL in test [11]; 21.7 μM and 20.0 μg/mL in test [12]; 21.7 μM and 20.0 μg/mL in test [13]; 5.0 µg/mL in test [1]; “(5.0) μg/mL” in test [2]. For the same compound, the MIC entry in test [3] was “(2.5) μg/mL”. The MBC entry in test [14] was “[64-128] μg/mL”. The “antibacterial activity in simulated wound fluid (SWF)” value in test [14] is recorded as “slightly decrease”. The “collagen production (collagen amount, % of control)” value in test [15] is on record as “produce more collagen”. In addition, the “bacteriostatic or bactericidal action” value in [16] is recorded as “bactericidal”.
Take `C[C@@H](O)[C@H](NC(=O)[C@@H](NC(=O)[C@@H](N)CCCCN)[C@@H](C)O)C(=O)N[C@@H](CCCCn1cc(C[n+]2ccn(C)c2)nn1)C(=O)N[C@@H](CO)C(N)=O` [KTTK(MeIm)S]: the MIC in test [4] was over 677.3 µg/mL; in test [5], > 954.2 μM and > 677.3 μg/mL; in test [6] it was > 954.2 μM and > 677.3 μg/mL; in test [7] it was > 954.2 μM and > 677.3 μg/mL.
Take `C[C@@H](O)[C@H](NC(=O)[C@H](CCCCN)NC(=O)Cn1cc(C[n+]2ccn(C)c2)nn1)C(=O)N[C@H](C(=O)N[C@@H](CCCCN)C(=O)N[C@@H](CO)C(N)=O)[C@@H](C)O` [MeIm-KTTKS] (X2-KTTKS-NH2; N-terminus and C-terminus assumed): the MIC in test [4] was over 633.4 µg/mL; in test [5] it was > 825.9 μM and > 633.4 μg/mL; in test [6], > 825.9 μM and > 633.4 μg/mL; in test [7] it was > 825.9 μM and > 633.4 μg/mL.
With `CCCCCCCCCCCCCCCCn1cc[n+](Cc2cn(CC(=O)N[C@@H](CCCCN)C(=O)N[C@H](C(=O)N[C@H](C(=O)N[C@@H](CCCCN)C(=O)N[C@@H](CO)C(N)=O)[C@@H](C)O)[C@@H](C)O)nn2)c1` [Peptide C16Im-KTTKS] (X1-KTTKS-NH2; N-terminus and C-terminus assumed), the MIC entry in [4] is reported as “(14.0) μg/mL”; in test [5], “(28.0) μg/mL”; in test [6] it was “(14.0) μg/mL”; in [7], “(28.0) μg/mL”; in test [8], “(26.8) μg/mL”; in test [9] it was “(9.3) μg/mL”. Besides, the MIC entry in test [10] was “(18.5) μg/mL”; in test [11], “(37.0) μg/mL”; in test [12] it was “(18.5) μg/mL”; in test [13], “(18.5)^a μg/mL”; in test [1], 4.6 µg/mL; in test [2] it was “(4.6) μg/mL”. For the same compound, the MIC entry in test [3] is listed as “(2.3) μg/mL”. For the same compound, in test [13] (MDR isolate SA007), the “MIC relative to that of ciprofloxacin” value is given as about 10 fold. The MBC result in test [14] is “[32-64] μg/mL”. The “antibacterial activity in simulated wound fluid (SWF)” value in [14] was “retain”. The “collagen production (collagen amount, % of control)” value in test [15] was “produce more collagen”. The “bacteriostatic or bactericidal action” value in [16] was “bactericidal”.
Regarding `CCCCCCCCCCCCCCCCn1cc[n+](C)c1.[Br-]` [[C16M1Im][Br], reference compound], the MIC is 60 µM in test [4]; over 240 µM in [5]; 0.94^d μM in test [6]; 0.94^c μM in test [7]; 60 µM in test [8]; 0.93 µM in test [1]. The MIC in [2] and in [3] was 0.93 µM in each case.
